Literature values as cited in patent US20230062279A1, “PHARMACEUTICAL COMPOSITIONS OF BORTEZOMIB” (EXTROVIS AG, priority 2021, published 2023).
Like-named read-outs stand apart in the source and are kept apart here.

- degradation (PEG 300:Ethanol:Water (40:10:50), 25° C., 24 hours): about 20%
- degradation (PG:Ethanol:Water, 25° C., 8 months): 20%
- degradation (ethanol and normal saline 2:98, pH 2.8, 25° C., 1 month): 20%
Structure (SMILES): CC(C)C[C@H](NC(=O)[C@H](Cc1ccccc1)NC(=O)c1cnccn1)B(O)O [bortezomib, [(1R)-3-methyl-1-[[(2S)-1-oxo-3-phenyl-2-[(pyrazinylcarbonyl)amino]propyl]amino]butyl] boronic acid]
